Reference: patent publication US9687539B2, “CD4+ T survivin epitopes and uses thereof” (Commissariat a I'Energie Atomique, priority 2005, dated 2017)
pIC50: −log10 of the molar value. No end group written: not given here.

Key:
HLA-DR7 (DRB1*0701) = HLA-DR7 (DRB1*0701) (Homo sapiens, UniProt P01903+P01911, A100R/A102G/A103Q/D57E/D86V/E43K/F76Y/K127E/L162R/M171V/P40G/Q125H/Q99D/R33Q/R42Y/R54Q/S133A/S66F/T210M/V115G/Y107V/Y59L/Y89S); assay: biochemical; conditions: competition with biotinylated tracer; 3 independent experiments; read-out: Binding activity DR7 (IC50)
[1] = tested on: survivin-specific CD4+ T lymphocyte lines; assay: Response of CD4+ T lymphocyte lines to decreasing doses of peptide, IFN-γ ELISPOT; type: cell-based, human; conditions: 10^−5 to 10^−10 M peptide, autologous PBMCs; donors 174 and 188
Method: FIG. 4 illustrates the response of the survivin-specific CD4+ T lymphocyte lines to decreasing doses of peptide. Survivin-specific CD4+ T lymphocyte lines were obtained from PBMCs from two normal donors (174 and 188). The lines were incubated with decreasing concentrations (10^−5 to 10^−10 M) of peptide 17-31 (▴), 90-104 (▪), 93-107 (▪), 96-110 (Δ) or 128-142 (□), in the presence of 10^5 autologous PBMCs. The CD4+ T lymphocyte response was measured by IFN-γ ELISPOT.
The anti-IFN-γ human monoclonal antibody 1-D1K (MABTECH), diluted to 10 μg/ml in PBS buffer, was adsorbed onto nitrocellulose plates (Multiscreen HA; Millipore) for 1 hour at 37° C. The plates were subsequently washed with PBS and then saturated with complete IMDM medium (100 μl/well), for 1 h at 37° C. […] The immunoenzymatic revelation was stopped after approximately 10 minutes by thorough rinsing of the plates in water, and the colored spots were counted using an automatic reader (ELISPOT reader system, AID). […]
Finally, the sensitivity of the peptide recognition by the T lymphocytes was evaluated, in the presence of decreasing doses of peptide (FIG. 4). […]

HLA-DRB5 (DRB5*0101) = HLA-DRB5 (DRB5*0101) (Homo sapiens, UniProt P01903+Q30154); assay: Competitive HLA II/peptide binding assay, HLA-DRB5; conditions: competition with biotinylated tracer; 3 independent experiments
HLA-DR15 (DRB1*1501) = HLA-DR15 (DRB1*1501) (Homo sapiens, UniProt P01903+P01911); assay: Competitive HLA II/peptide binding assay, HLA-DR15; conditions: competition with biotinylated tracer; 3 independent experiments
HLA-DP401 (DP*0401) = biological target: T1, HLA-DP401 (DP*0401) (Homo sapiens, UniProt P04440+P20036); assay: biochemical; conditions: competition with biotinylated tracer; 3 independent experiments; read-out: Binding activity DP401 (IC50)
T1 sequence (P04440 30-258): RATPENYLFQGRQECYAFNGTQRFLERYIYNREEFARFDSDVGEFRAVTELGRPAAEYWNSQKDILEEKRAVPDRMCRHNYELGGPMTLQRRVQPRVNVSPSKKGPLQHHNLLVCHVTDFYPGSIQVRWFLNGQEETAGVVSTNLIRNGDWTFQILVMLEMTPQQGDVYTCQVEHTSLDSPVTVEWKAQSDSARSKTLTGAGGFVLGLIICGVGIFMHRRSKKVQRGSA
T1 sequence (P20036 29-260): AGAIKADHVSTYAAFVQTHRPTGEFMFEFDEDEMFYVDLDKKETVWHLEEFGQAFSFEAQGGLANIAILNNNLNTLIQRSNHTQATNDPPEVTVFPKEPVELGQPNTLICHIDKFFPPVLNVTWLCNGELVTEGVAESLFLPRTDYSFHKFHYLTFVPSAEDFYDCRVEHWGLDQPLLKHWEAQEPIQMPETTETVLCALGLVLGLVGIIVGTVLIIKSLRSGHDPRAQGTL

Sequence: HRISTFKNWPFLEGC [peptide 17-31, H R I S T F K N W P F L E G C]
- pIC50 (HLA-DR7 (DRB1*0701)): 7.74
- Peptide concentration at which CD4+ T lymphocyte lines are stimulated [1]: 10^−10 M
- pIC50 (HLA-DRB5 (DRB5*0101)): 6.52

Sequence: KKQFEELTLGEFLKL [peptide 90-104, K K Q F E E L T L G E F L K L]
- pIC50 (HLA-DR15 (DRB1*1501)): 5.12

Sequence: LTLGEFLKLDRERAK [peptide 96-110, L T L G E F L K L D R E R A K]
- pIC50 (HLA-DP401 (DP*0401)): 5.54
